Test results published in patent US6689788B1, “Method and composition for treatment of inflammatory bowel disease” (University of Florida, priority 2000, dated 2004).
“Also recorded” adds a separate entry of the source.

Key:
[1] = tested on: acetic acid-induced colitis; test: acetic acid-induced colitis in the rat, test drug i.r. 30 minutes before acetic acid; type: in vivo; conditions: for damage in the colons: 650 μmol/kg i.r. 30 minutes before acetic acid, colons assessed 24 hours later
Source text: A typical model of IBD in acetic acid-induced colitis in the rat has been described by Krawisz et al in Amer. J. Proc. Gastro. Col. Rec. Surg., Vol. 31, pages 11-18 (1980); and by Sharon et al in Gastroenterology, Vol. 88, pages 55-63 (1985) and Vol. 86, pages 453-460 (1984). Acetic acid-induced colitis is characterized by the movement of inflammatory cells into the colon, with the number of such cells in the mucosa being measured by the activity of myeloperoxidase, a marker enzyme for these cells. Positive desirable activity is indicated by a reduction in the high levels of myeloperoxidase caused by acetic acid. Typically, Sprague-Dawley rats from Charles River Laboratories, Portage, Mich. (either sex, weight approximately 250 g) are dosed with test compounds and controls. Thereafter, the rats are given an intracolonic enema of acetic acid which produces a severe inflammatory response in the colon of a healthy rat characterized by rectal bleeding, diarrhea, epithelial erosions and destructions of crypts and gland cells. Twenty-four hours later, the test and control animals are sacrificed and the distal ten centimeters of the colons are removed and opened longitudinally. The tissue lesions contained within the removed, opened section of the colons are scored. After the systematic evaluation of the impact of various fasting times, use of vehicles, the time interval between pre-treatment and administration of the acetic acid and altering the concentration of acetic acid, the final protocol for the experiments is to fast the rats for 30 hours in hanging wire cages, anesthetize the animals with sodium pentobarbital, administer the test drug 1 cc intrarectally (i.r.) either as a suspension or a solution in water, and to give the acetic acid (7.5% in water) 1 cc i.r. 30 minutes later. The rats are sacrificed 24 hours later and the colons are removed and assessed for damage.

[2] = tested on: acetic acid-induced colitis; test: reversal studies, compound given 30 minutes after 2.5% acetic acid; type: in vivo, rat
Source text: (§1) The lesions were apparently resolving and with some lamina proprial fibrosis and considerable hyperplasia of submucosal lymphoid tissue. […] This is a highly desirable property, as patients suffering from IBD are already anemic due to disease-related blood loss.

mice = conditions: mouse, in vivo
Source text: DFO and DFT given i.r. at a dose of 650 μmol/kg were ineffective. […] See, for example, FIGS. 7 and 8.

[3] = iron binding in a test tube; type: physicochemical
Source text: as §1

iron = iron chelator activity when given to rats; type: in vivo
Source text: as §1

| Structure (SMILES) | damage in the colons [1] | dose response study, prevention of severe lesions ([1]; 162.5 μmol/kg (41.5 mg/kg) at 1 cc i.r.) | head-to-head comparison with 5-ASA or its commercially available formulation (Rowasa) ([1]; compound 650 μmol/kg vs. 5-ASA/Rowasa 1742 μmol/kg) | lesions compared with the control group [2] | acute toxicity (mice) | iron binding [3] | activity as an iron chelator (iron; orally) | activity as an iron chelator (iron; subcutaneously (s.c.)) |
| --- | --- | --- | --- | --- | --- | --- | --- | --- |
| CC(=O)N(O)CCCCCNC(=O)CCC(=O)N(O)CCCCCNC(=O)CCC(=O)N(O)CCCCCN [DFO, reference compound] | ineffective | – | – | – | – | – | – | – |
| Cc1ccc(O)c(C2=NC(C(=O)O)CC2)c1 (stereo not shown) [2H-pyrrolecarboxylic acid, 3,4-dihydro-5-(2-hydroxy-5-methylphenyl)-2H-pyrrole-2-carboxylic acid] | very little damage; also recorded: considerably less damage | severe lesions being prevented in a majority of rats | far superior | less severe and less active | virtually non-toxic | binds iron remarkably well | inactive | inactive |
| C[C@]1(C(=O)O)CSC(c2ncccc2O)=N1 [DFT, reference compound] | ineffective | – | – | – | – | – | – | – |
